Laboratory results reported in US20250101032A1, “EXATECAN DERIVATIVES AND ANTIBODY-DRUG CONJUGATES THEREOF” (priority 2021, published 2025).
Converted amounts (≈) assume the structure as drawn. Where two headings read alike, the source gives them in different places.

Key:
physchem = conditions: 25 °C, pH 7.4, aqueous buffer, kinetic from dmso stock
Procedure: In-vitro kinetic solubilities of the compounds in PBS pH 7.4 buffer at 25° C. were determined by diluting compounds from 100% dimethyl sulfoxide (DMSO) into PBS buffer and measuring absorbance at 490, 590 and 650 nm. Stock concentrations in 100% DMSO were provided at 1-6 mM in 100% DMSO. Kinetic solubilities were determined by diluting test compounds from 100% DMSO into PBS pH 7.4 buffer, as duplicate, 10 point 2-fold serial dilution starting at 100× dilution of stock DMS solution into PBS buffer in a clear, flat bottom polystyrene assay plates. Total assay volume was 200 microliters. Solutions were mixed by plate shaking, incubated for 30 m at 25° C., and absorbance was read at 490, 590 and 650 nm. […] in PBS buffer was used as a blank. For each test compound, average optical density (GD) at each concentration was determined by averaging the blank corrected sum of absorption at 490 nm, 590 nm and 650 nm, over duplicate measurements. Turbidity threshold optical density value was set as a sum of mean plus two standard deviations of the mean of absorbances at 490, 590 and 650 nm for 1% (v/v) DMSO in PBS pH 7.4 buffer. Highest soluble concentration (micromolar) corresponded to the highest concentration at which average optical density was below optical density value set for turbidity threshold (Table 4). Amiodarone and propranolol were used as low and high solubility controls respectively.

SKBR3 = assay: In vitro cytotoxicity assay (CellTiter-Glo), SKBR3; format: cell-based, Human; conditions: read-out: Cytotoxicity IC50
Procedure: (§1) Human tumor cell lines, SK-BR-3, NCI-H292, HT-29, MCF-7, NCI-N87, and FaDu were obtained from ATCC. NCI-H292, HT-29, MCF-7, and NCI-N87 cells were cultured in RPMI-1640 media (Gibco, Life Technologies) supplemented with 10% v/v heat inactivated FBS (Corning), FaDu cells were maintained in DMEM media (Gibco, Life Technologies) supplemented with 10% v/v heat inactivated FBS (Corning). SK-BR-3 cells were maintained in McCoys 5A medium (Gibco, Life Technologies) supplemented with 10% […] heat inactivated FBS (Corning) at 37° C. in a humidified incubator containing 5% CO2.
(§2) Lyophilized compounds were dissolved in 100% dry DMSO, aliquots frozen and stored at −80° C. Concentration and purity of compound stock solutions in DMSO were determined by RP-HPLC Agilent 1100 platform with 1200 DAD and SofTA ELSD detectors, and the Agilent 6150 MS system (UV/VIS, ELSD purity and MS compound identity confirmation). Shimadzu 3.0 mm×30 mm XR ODS 2.2 μm column was run at 50° C., 1.5 mL/min. Solvent A: 0.1% Formic acid in water, Solvent B: 0.08% Formic acid in methanol-Gradient: 5%-100% B in 3.0 min, 100% solvent B for 0.3 min. Concentration of compounds in 100% DMSO determined by ELS ranged from 1-6 mM.
(§3) Cells were plated in 96-well white flat-bottomed plates (Corning) at 2.0×10^3 cells per well in 100 μL culture medium. After incubation for 24 hours, test compounds were added at a range of concentrations as ten point serial dilution as duplicates or triplicates. Following further incubation for 6 days 37° C., 5% CO2, cell viability was assessed with the use of a CellTiter-Glo Luminescent Cell Viability Assay (Promega). Luminescence was measured using the GloMax instrument (Promega). […] For a subset of payloads, each treatment was independently repeated two to eight times, and IC50 values were averaged. […] Standard deviation (stdev) is shown as (N/A) for treatment performed once.

HT29 = assay: In vitro cytotoxicity assay (CellTiter-Glo), HT29; format: cell-based, Human; conditions: read-out: Cytotoxicity IC50
Procedure: as §1, §2, §3

NCI-H292 = assay: In vitro cytotoxicity assay (CellTiter-Glo), NCI-H292; format: cell-based, Human; conditions: read-out: Cytotoxicity IC50
Procedure: as §1, §2, §3

MCF7 = assay: In vitro cytotoxicity assay (CellTiter-Glo), MCF7; format: cell-based, Human; conditions: read-out: Cytotoxicity IC50
Procedure: as §1, §2, §3

NCI-N87 = assay: In vitro cytotoxicity assay (CellTiter-Glo), NCI-N87; format: cell-based, Human; conditions: read-out: Cytotoxicity IC50
Procedure: as §1, §2, §3

FaDu = assay: In vitro cytotoxicity assay (CellTiter-Glo), FaDu; format: cell-based, Human; conditions: read-out: Cytotoxicity IC50
Procedure: as §1, §2, §3

SKOV3 = assay: In vitro cytotoxicity assay (CellTiter-Glo), SKOV3; format: cell-based; conditions: read-out: Cytotoxicity IC50
Procedure: (§4) Lyophilized compounds were dissolved in 100% dry DMSO, aliquots frozen and stored at −80° C. […] Shimadzu 3.0 mm×30 mm XR ODS 2.2 μm column was run at 50° C., 1.5 mL/min. Solvent A: 0.1% Formic acid in water, Solvent B: 0.08% Formic acid in methanol-Gradient: 5%-100% B in 3.0 min, 100% solvent B for 0.3 min.
as §3

BXPC3 = assay: In vitro cytotoxicity assay (CellTiter-Glo), BXPC3; format: cell-based; conditions: read-out: Cytotoxicity IC50
Procedure: as §4, §3

Row | SMILES | solubility at 30 min (physchem) [µM] | IC50 (SKBR3; Homo sapiens, SK-BR-3, 144 h) [nM] | IC50 (HT29; Homo sapiens, HT-29, 144 h) [nM] | IC50 (NCI-H292; Homo sapiens, NCI-H292, 144 h) [nM] | IC50 (MCF7; Homo sapiens, MCF7, 144 h) [nM] | IC50 (NCI-N87; Homo sapiens, NCI-N87, 144 h) [nM] | IC50 (FaDu; Homo sapiens, FaDu, 144 h) [nM] | IC50 (SKOV3; Homo sapiens, SK-OV-3, 144 h) [nM] | IC50 (BXPC3; Homo sapiens, BXPC-3, 144 h) [nM] | IC50 (SKBR3; SKBR3 cells, 6 days incubation, mean of IC50 values) [nM] | IC50 (HT29; HT29 cells, 6 days incubation, mean of IC50 values) [nM] | IC50 (NCI-H292; NCI-H292 cells, 6 days incubation, mean of IC50 values) [nM] | IC50 (MCF7; MCF7 cells, 6 days incubation, mean of IC50 values) [nM] | IC50 (NCI-N87; NCI-N87 cells, 6 days incubation, mean of IC50 values) [nM] | IC50 (FaDu; FaDu cells, 6 days incubation, mean of IC50 values) [nM] | IC50 (SKOV3; SKOV3 cells, 6 days incubation, mean of IC50 values) [nM] | IC50 (BXPC3; BXPC3 cells, 6 days incubation, mean of IC50 values) [nM]
1 | CC[C@@]1(O)C(=O)OCc2c1cc1n(c2=O)Cc2c-1nc1cc(F)c(C)c3c1c2[C@@H](NC(=O)NC(CO)(CO)CO)CC3 [Compound 48] | 28 (≈ 16.3 µg/mL) | 12.6 | 63.6 | 27.1 | 11.8 | 43 | 2.8 | 77.8 | 20.3 |  |  |  |  |  |  |  | 
2 | CC[C@@]1(O)C(=O)OCc2c1cc1n(c2=O)Cc2c-1nc1cc(F)c(C)c3c1c2[C@@H](NC(=O)CC(=O)NCCO)CC3 [Compound 12] | 17 (≈ 9.6 µg/mL) | 30.5 | 318 | 68.6 | 43.9 | 92 | 16.4 | 151 | 45.6 |  |  |  |  |  |  |  | 
3 | CC[C@@]1(O)C(=O)OCc2c1cc1n(c2=S)Cc2c-1nc1cc(F)c(C)c3c1c2[C@@H](NC(=S)CO)CC3 [Compound 148] | 3 (≈ 1.58 µg/mL) | 0.3 | 0.9 | 1.1 | 0.1 | 0.2 |  | 0.2 | 0.1 |  |  |  |  |  |  |  | 
4 | CC[C@@]1(O)C(=O)OCc2c1cc1n(c2=O)Cc2c-1nc1cc(F)c(C)c3c1c2[C@@H](Nc1c(NCC(O)CO)c(=O)c1=O)CC3 (stereo partly shown) [Compound 115] | 23 (≈ 13.9 µg/mL) | 62.8 | 155 | 128 | 47 | 127 | 56.1 | 174 | 55 |  |  |  |  |  |  |  | 
5 | CC[C@@]1(O)C(=O)OCc2c1cc1n(c2=O)Cc2c-1nc1cc(F)c(C)c3c1c2[C@@H](NC(=O)[C@@H]1C[C@H]1CO)CC3 (single isomer, unassigned) [Compound 111-A] | 23 (≈ 12.3 µg/mL) | 6 | 34.4 | 18 | 16.7 | 13.1 | 1.9 | 24.5 | 5.6 |  |  |  |  |  |  |  | 
6 | CC[C@@]1(O)C(=O)OCc2c1cc1n(c2=O)Cc2c-1nc1cc(F)c(C)c3c1c2[C@@H](NC(=O)C1OC(O)C(O)C1O)CC3 (stereo partly shown) [Compound 100] | 29 (≈ 16.9 µg/mL) | 36 | 93.4 | 228 | 28.8 | 78.6 | 7 | 90.5 | 26.9 |  |  |  |  |  |  |  | 
7 | CC[C@@]1(O)C(=O)OCc2c1cc1n(c2=O)Cc2c-1nc1cc(F)c(C)c3c1c2[C@@H](NCCO)CC3 [Compound 105] | 25 (≈ 12 µg/mL) | 0.9 | 2.1 | 1.7 | 1.4 | 1.6 | 1.3 | 1.8 | 0.6 |  |  |  |  |  |  |  | 
8 | CC[C@@]1(O)C(=O)OCc2c1cc1n(c2=O)Cc2c-1nc1cc(F)c(C)c3c1c2[C@@H](NC(=O)Cc1cn(CCO)nn1)CC3 [Compound 66] | 21 (≈ 12.4 µg/mL) | 7.3 | 78.1 | 24.7 | 23.9 | 30 | 7.9 | 43.3 | 9.8 |  |  |  |  |  |  |  | 
9 | CC[C@@]1(O)C(=O)OCc2c1cc1n(c2=O)Cc2c-1nc1cc(F)c(C)c3c1c2[C@@H](NCc1cnnn1CCO)CC3 [Compound 109] | 17 (≈ 9.53 µg/mL) | 7.3 | 56.8 | 26.1 | 12.8 | 29.3 | 8.3 | 32.4 | 10.8 |  |  |  |  |  |  |  | 
10 | CC[C@@]1(O)C(=O)OCc2c1cc1n(c2=O)Cc2c-1nc1cc(F)c(C)c3c1c2[C@@H](NC(=O)CCC(=O)NCC(O)CO)CC3 (stereo partly shown) [Compound 117] | 30 (≈ 18.3 µg/mL) | 474 | 2910 | 888 | 342 | 1450 | 234 | 1090 | 412 |  |  |  |  |  |  |  | 
11 | CC[C@@]1(O)C(=O)OCc2c1cc1n(c2=O)Cc2c-1nc1cc(F)c(C)c3c1c2[C@@H](NCc1cn(CCO)nn1)CC3 [Compound 108] | 10 (≈ 5.61 µg/mL) | 2.9 | 13.2 | 8.1 | 4.4 | 8.3 | 2.4 | 6.6 | 2.3 |  |  |  |  |  |  |  | 
12 | CC[C@@]1(O)C(=O)OCc2c1cc1n(c2=O)Cc2c-1nc1cc(F)c(C)c3c1c2[C@@H](N(CCO)C(C)=O)CC3 [Compound 136] | 23 (≈ 12 µg/mL) | 23.7 | 36.8 | 16.3 | 18.4 | 40.2 | 5.2 | 98.4 | 24.9 |  |  |  |  |  |  |  | 
13 | CC[C@@]1(O)C(=O)OCc2c1cc1n(c2=O)Cc2c-1nc1cc(F)c(C)c3c1c2[C@@H](NC(=O)NCCO)CC3 [Compound 42] | 8 (≈ 4.18 µg/mL) | 5.2 | 10.2 | 2.4 | 11.8 | 12 | 2.9 | 19.5 | 5.6 |  |  |  |  |  |  |  | 
14 | CC[C@@]1(O)C(=O)OCc2c1cc1n(c2=O)Cc2c-1nc1cc(F)c(C)c3c1c2[C@@H](N)CC3 [Exatecan, exatecan] | 24 (≈ 10.5 µg/mL) | 0.5 | 1 | 1.3 | 0.4 | 1.2 | 0.6 | 0.7 | 0.3 |  |  |  |  |  |  |  | 
15 | CC[C@@]1(O)C(=O)OCc2c1cc1n(c2=O)Cc2c-1nc1cc(F)c(C)c3c1c2[C@@H](Nc1c(O)c(=O)c1=O)CC3 [Compound 129] | 22 (≈ 11.7 µg/mL) | 169 | 282 | 208 | 79.3 | 300 | 92.9 | 265 | 134 |  |  |  |  |  |  |  | 
16 | CC[C@@]1(O)C(=O)OCc2c1cc1n(c2=O)Cc2c-1nc1cc(F)c(C)c3c1c2[C@@H](NC(=O)CO)CC3 [DXD] |  |  |  |  |  |  |  |  |  | 1.3 | 6.9 | 3.8 | 2.7 | 4.7 | 0.9 | 8.6 | 2.3
